Test results from US4877795A, “4H-quinolizin-4-one compounds useful for the treatment of allergic bronchial asthma, allergic rhinitis atropic dermatitis and the like” (Kissei Pharmaceutical Co., Ltd., priority 1987, dated 1989).

How the values were obtained:
IgE = assay: Determination of Igs produced in in vitro culture: inhibition of IgE secreted by spleen cells (adoptive secondary immune response to DNP-As), ELISA; assay type: cell-based, BALB/c mice; conditions: 4 days culture; for inhibition at 2.5 µg/mL: 2.5 μg/ml; for inhibition at 0.25 µg/mL: 0.25 μg/ml; for inhibition at 5 µg/mL: 5.0 μg/ml; for inhibition at 40 µg/mL: 40.0 μg/ml
Description: (§1) Determination of Igs produced in in vitro culture
(§2) BALB/c mice were immunized intraperitoneally with 5 μg of DNP-As adsorbed in 4 mg aluminum hydroxide gel. 4 weeks after the immunization, the spleens were excised from the mice and 5×10^7 spleen cells were transferred intravenously into the recipient mice which had been exposed to 600 rad of X-ray irradiation. Immediately after cell transfer, the recipients were then immunized intraperitoneally with 5 μg of DNP-As adsorbed in 4 mg aluminum hydroxide gel to induce adoptive secondary immune response. Further 4 weeks after the immunization of recipients, the spleens were excised from them and the spleen cell suspensions 5×10^6 cells/ml were cultured with or without a compound to be tested in 96-well micro plates at 37° C. for 4 days. IgE and IgG secreted into the culture supernatant was each determined correspondingly by ELISA and the inhibitory effect was calculated according to the following equation. [formula]

IgG = assay: Determination of Igs produced in in vitro culture: inhibition of IgG secreted by spleen cells (adoptive secondary immune response to DNP-As), ELISA; assay type: cell-based, BALB/c mice; conditions: 4 days culture; for inhibition at 2.5 µg/mL: 2.5 μg/ml; for inhibition at 0.25 µg/mL: 0.25 μg/ml; for inhibition at 5 µg/mL: 5.0 μg/ml; for inhibition at 40 µg/mL: 40.0 μg/ml
Description: as §1, §2

CSc1c(C#N)c(=O)n2ccccc2c1C(=O)OCc1cccc(Cl)c1 [S-38, 3'-Chlorobenzyl 3-cyano-2-methylthio-4H-quinolizin-4-one-1-carboxylate]
inhibition at 1 µg/mL (IgE; Mus musculus, 96 h, 1.0 μg/ml): 77% | inhibition at 1 µg/mL (IgG; Mus musculus, 96 h, 1.0 μg/ml): 43%

CSc1c(C#N)c(=O)n2ccccc2c1C(=O)N(C1CCCCC1)C1CCCCC1 [S-61, 3-Cyano-N,N-dicyclohexyl-2-methylthio-4H-quinolizin-4-one-1-carboxamide]
inhibition at 2.5 µg/mL (IgE; Mus musculus, 96 h): 93% | inhibition at 2.5 µg/mL (IgG; Mus musculus, 96 h): 48%

CSc1c(C#N)c(=O)n2ccccc2c1C(=O)CCCc1cccs1 [S-106, 3-Cyano-2-methylthio-1-(4-thienylbutyryl)-4H-quinolizin-4-one]
Inhibition % of IgE (IgE; 1.0 μg/ml): 61% | Inhibition % of IgG (IgG; 1.0 μg/ml): 26%

CSc1c(C#N)c(=O)n2ccccc2c1C(=O)OCc1ccc(C(C)C)cc1 [S-36, 4'-Isopropylbenzyl 3-cyano-2-methylthio-4H-quinolizin-4-one-1-carboxylate]
inhibition at 0.25 µg/mL (IgE; Mus musculus, 96 h): 33% | inhibition at 0.25 µg/mL (IgG; Mus musculus, 96 h): 8%

CSc1c(C#N)c(=O)n2ccccc2c1C(=O)N1CCN(Cc2ccccc2)CC1 [S-90, 1-(4-Benzyl-1-piperadinylcarbonyl)-3-cyano-2-methylthio-4H-quinolizin-4-one]
inhibition at 5 µg/mL (IgE; Mus musculus, 96 h): 45% | inhibition at 5 µg/mL (IgG; Mus musculus, 96 h): 14%

CSc1c(C#N)c(=O)n2ccccc2c1C(=O)N1CCCCC1 [S-79, 3-Cyano-2-methylthio-1-piperidinocarbonyl-4H-quinolizin-4-one]
inhibition at 40 µg/mL (IgE; Mus musculus, 96 h): 59% | inhibition at 40 µg/mL (IgG; Mus musculus, 96 h): 13%

CSc1c(C#N)c(=O)n2ccccc2c1C(=O)NC1CCCCC1 [S-72, 3-Cyano-N-cyclohexyl-2-methylthio-4H-quinolizin-4-one-1-carboxamide]
inhibition at 5 µg/mL (IgE; Mus musculus, 96 h): 46% | inhibition at 5 µg/mL (IgG; Mus musculus, 96 h): -5%

CSc1c(C#N)c(=O)n2ccccc2c1C(=O)Nc1nc(-c2ccccc2)cs1 [S-75, 3-Cyano-2-methylthio-N-(4-phenyl-2-thiazolyl)-4H-quinolizin-4-one-1-carboxamide]
inhibition at 2.5 µg/mL (IgE; Mus musculus, 96 h): 50% | inhibition at 2.5 µg/mL (IgG; Mus musculus, 96 h): 25%

CSc1c(C#N)c(=O)n2ccccc2c1C(=O)O[C@H]1CC[C@H](O)CC1 [S-16, trans-4'-Hydroxycyclohexyl 3-cyano-2-methylthio-4H-quinolizin-4-one-1-carboxylate]
inhibition at 5 µg/mL (IgE; Mus musculus, 96 h): 52% | inhibition at 5 µg/mL (IgG; Mus musculus, 96 h): 14%

CSc1c(C#N)c(=O)n2ccccc2c1C(=O)Cc1cccc(C)c1 [S-97, 3-Cyano-1-(3-methylphenylacetyl)-2-methylthio-4H-quinolizin-4-one]
inhibition at 2.5 µg/mL (IgE; Mus musculus, 96 h): 46% | inhibition at 2.5 µg/mL (IgG; Mus musculus, 96 h): 18%

CSc1c(C#N)c(=O)n2ccccc2c1C(=O)OCc1ccc(-c2ccccc2)cc1 [S-40, 4'-phenylbenzyl 3-cyano-2-methylthio-4H-quinolizin-4-one-1-carboxylate]
inhibition at 0.25 µg/mL (IgE; Mus musculus, 96 h): 53% | inhibition at 0.25 µg/mL (IgG; Mus musculus, 96 h): 34%

CSc1c(C#N)c(=O)n2ccccc2c1C(=O)Cc1ccccc1 [S-95, 3-Cyano-2-methylthio-1-phenylacetyl-4H-quinolizin-4-one]
inhibition at 20 µg/mL (IgE; Mus musculus, 96 h, 20.0 μg/ml): 70% | inhibition at 20 µg/mL (IgG; Mus musculus, 96 h, 20.0 μg/ml): 47%

COc1cccc(COC(=O)c2c(SC)c(C#N)c(=O)n3ccccc23)c1 [S-35, 3'-Methoxybenzyl 3-cyano-2-methylthio-4H-quinolizin-4-one-1-carboxylate]
inhibition at 1 µg/mL (IgE; Mus musculus, 96 h, 1.0 μg/ml): 64% | inhibition at 1 µg/mL (IgG; Mus musculus, 96 h, 1.0 μg/ml): 45%

CSc1c(C#N)c(=O)n2ccc(C)cc2c1C(=O)OCCCc1ccccc1 [S-51, 3'-Phenylpropyl 3-cyano-8methyl-2-methylthio-4H-quinolizin-4-one-1-carboxylate]
inhibition at 1 µg/mL (IgE; Mus musculus, 96 h, 1.0 μg/ml): 65% | inhibition at 1 µg/mL (IgG; Mus musculus, 96 h, 1.0 μg/ml): 43%

COc1ccccc1COC(=O)c1c(SC)c(C#N)c(=O)n2ccccc12 [S-37, 2'-Methoxybenzyl 3-cyano-2-methylthio-4H-quinolizin-4-one-1-carboxylate]
inhibition at 0.25 µg/mL (IgE; Mus musculus, 96 h): 36% | inhibition at 0.25 µg/mL (IgG; Mus musculus, 96 h): 11%

CSc1c(C#N)c(=O)n2ccccc2c1C(=O)OCCc1ccccc1 [S-48, 2'-Phenylethyl 3-cyano-2-methylthio-4H-quinolizin-4-one-1-carboxylate]
inhibition at 1 µg/mL (IgE; Mus musculus, 96 h, 1.0 μg/ml): 57% | inhibition at 1 µg/mL (IgG; Mus musculus, 96 h, 1.0 μg/ml): 15%

CSc1c(C#N)c(=O)n2ccccc2c1C(=O)N(CC(C)C)CC(C)C [S-64, 3-Cyano-N,N-diisobutyl-2-methylthio-4H-quinolizin-4-one-1-carboxamide]
inhibition at 5 µg/mL (IgE; Mus musculus, 96 h): 65% | inhibition at 5 µg/mL (IgG; Mus musculus, 96 h): 41%

CSc1c(C#N)c(=O)n2ccccc2c1C(=O)Nc1ccc(Nc2ccccc2)cc1 [S-74, N-(4-Anilinophenyl)-3-cyano-2-methylthio-4H-quinolizin-4-one-1-carboxamide]
inhibition at 2.5 µg/mL (IgE; Mus musculus, 96 h): 51% | inhibition at 2.5 µg/mL (IgG; Mus musculus, 96 h): 10%

CSc1c(C#N)c(=O)n2ccccc2c1C(=O)OCc1ccc(F)cc1 [S-34, 4'-Fluorobenzyl 3-cyano-2-methylthio-4H-quinolizin-4-one-1-carboxylate]
inhibition at 0.25 µg/mL (IgE; Mus musculus, 96 h): 52% | inhibition at 0.25 µg/mL (IgG; Mus musculus, 96 h): 31%

CSc1c(C#N)c(=O)n2ccccc2c1C(=O)N1CCC(Cc2ccccc2)CC1 (single isomer, unassigned) [S-82A, 1-(4-Benzylpiperidinocarbonyl)-3-cyano-2-methylthio-4H-quinolizin-4-one]
inhibition at 1 µg/mL (IgE; Mus musculus, 96 h, 1.0 μg/ml): 43% | inhibition at 1 µg/mL (IgG; Mus musculus, 96 h, 1.0 μg/ml): 18%

CSc1c(C#N)c(=O)n2ccc(C)cc2c1C(=O)CCCCc1ccccc1 [S-108, 3-Cyano-8-methyl-2-methylthio-1-(5-phenylvaleryl)-4H-quinolizin-4-one]
inhibition at 1 µg/mL (IgE; Mus musculus, 96 h, 1.0 μg/ml): 60% | inhibition at 1 µg/mL (IgG; Mus musculus, 96 h, 1.0 μg/ml): 35%

CSc1c(C#N)c(=O)n2ccccc2c1C(=O)OCCSc1ccccc1 [S-55, 2'-Phenylthioethyl 3-cyano-2-methylthio-4H-quinolizin-4-one-1-carboxylate]
inhibition at 0.25 µg/mL (IgE; Mus musculus, 96 h): 51% | inhibition at 0.25 µg/mL (IgG; Mus musculus, 96 h): 29%

CCOC(=O)c1c(SC(C)C)c(C#N)c(=O)n2ccccc12 [S-57, Ethyl 3-cyano-2-isopropylthio-4H-quinolizin-4-one-1-carboxylate]
inhibition at 5 µg/mL (IgE; Mus musculus, 96 h): 53% | inhibition at 5 µg/mL (IgG; Mus musculus, 96 h): 32%

CSc1c(C#N)c(=O)n2ccccc2c1C(=O)N1CCN(Cc2ccc3c(c2)OCO3)CC1 [S-89, 3-Cyano-2-methylthio-1-(4-piperonyl-1-piperadinyl-carbonyl)-4H-quinolizin-4-one]
inhibition at 5 µg/mL (IgE; Mus musculus, 96 h): 58% | inhibition at 5 µg/mL (IgG; Mus musculus, 96 h): 32%

CSc1c(C#N)c(=O)n2ccccc2c1C(=O)OCCCC1CCCCC1 [S-3, 3'-Cyclohexylpropyl 3-cyano-2-methylthio-4H-quinolizin-4-one-1-carboxylate]
inhibition at 1 µg/mL (IgE; Mus musculus, 96 h, 1.0 μg/ml): 79% | inhibition at 1 µg/mL (IgG; Mus musculus, 96 h, 1.0 μg/ml): 35%

CSc1c(C#N)c(=O)n2ccccc2c1C(=O)OCc1ccccc1 [S-29, Benzyl 3-cyano-2-methylthio-4H-quinolizin-4-one-1-carboxylate]
inhibition at 1 µg/mL (IgE; Mus musculus, 96 h, 1.0 μg/ml): 69% | inhibition at 1 µg/mL (IgG; Mus musculus, 96 h, 1.0 μg/ml): 31%

CSc1c(C#N)c(=O)n2ccccc2c1C(=O)Cc1ccc(Cl)cc1 [S-96, 1-(4-Chlrophenylacetyl)-3-cyano-2-methylthio-4H-quinolizin-4-one]
inhibition at 5 µg/mL (IgE; Mus musculus, 96 h): 41% | inhibition at 5 µg/mL (IgG; Mus musculus, 96 h): 12%

N#Cc1c(SCc2ccccc2)c(C(=O)N2CCC(c3ccccc3)CC2)c2ccccn2c1=O (single isomer, unassigned) [S-83A, 2-Benzylthio-3-cyano-1-(4-phenylpiperidinocarbonyl)-4H-quinolizin-4-one]
inhibition at 1 µg/mL (IgE; Mus musculus, 96 h, 1.0 μg/ml): 67% | inhibition at 1 µg/mL (IgG; Mus musculus, 96 h, 1.0 μg/ml): 23%

C=C(C)CSc1c(C#N)c(=O)n2ccccc2c1C(=O)OCC [S-56]
inhibition at 5 µg/mL (IgE; Mus musculus, 96 h): 70% | inhibition at 5 µg/mL (IgG; Mus musculus, 96 h): 30%

CSc1c(C#N)c(=O)n2ccccc2c1C(=O)N1CCC(OC(C)=O)(c2ccccc2)CC1 [S-80, 1-(4-Acetoxy-4-phenylpiperidinocarbonyl)-3-cyano-methylthio-4H-quinolizin-4-one]
inhibition at 2.5 µg/mL (IgE; Mus musculus, 96 h): 66% | inhibition at 2.5 µg/mL (IgG; Mus musculus, 96 h): 34%

CSc1c(C#N)c(=O)n2ccccc2c1C(C)=O [S-92, 1-Acetyl-3-cyano-2-methylthio-4H-quinolizin-4-one]
inhibition at 40 µg/mL (IgE; Mus musculus, 96 h): 56% | inhibition at 40 µg/mL (IgG; Mus musculus, 96 h): 8%

CSc1c(C#N)c(=O)n2ccccc2c1C(=O)OCCCOc1ccccc1 [S-54, 3'-Phenoxypropyl 3-cyano-2-methylthio-4H-quinolizin-4-one-1-carboxylate]
inhibition at 1 µg/mL (IgE; Mus musculus, 96 h, 1.0 μg/ml): 73% | inhibition at 1 µg/mL (IgG; Mus musculus, 96 h, 1.0 μg/ml): 50%

CSc1c(C#N)c(=O)n2ccccc2c1C(=O)OCc1ccc2ccccc2c1 [S-41, 2'-Napthylmethyl 3-cyano-2-methylthio-4H-quinolizin-4-one-1-carboxylate]
inhibition at 1 µg/mL (IgE; Mus musculus, 96 h, 1.0 μg/ml): 86% | inhibition at 1 µg/mL (IgG; Mus musculus, 96 h, 1.0 μg/ml): 68%

CSc1c(C#N)c(=O)n2ccccc2c1C(=O)Cc1ccc(C)cc1 [S-99, 3-Cyano-1-(4-methylphenylacetyl)-2-methylthio-4H-quinolizin-4-one]
inhibition at 10 µg/mL (IgE; Mus musculus, 96 h, 10.0 μg/ml): 52% | inhibition at 10 µg/mL (IgG; Mus musculus, 96 h, 10.0 μg/ml): 1%

CCCCCCN(CCCCCC)C(=O)c1c(SC)c(C#N)c(=O)n2ccccc12 [S-65, 3-Cyano-N,N-dihexyl-2-methylthio-4H-quinolizin-4-one-1-carboxamide]
inhibition at 2.5 µg/mL (IgE; Mus musculus, 96 h): 87% | inhibition at 2.5 µg/mL (IgG; Mus musculus, 96 h): 40%

CSc1c(C#N)c(=O)n2ccccc2c1C(=O)OCc1cccc2ccccc12 [S-42, 1'-Naphthylmethyl 3-cyano-2-methylthio-4H-quinolizin-4-one-1-carboxylate]
inhibition at 1 µg/mL (IgE; Mus musculus, 96 h, 1.0 μg/ml): 75% | inhibition at 1 µg/mL (IgG; Mus musculus, 96 h, 1.0 μg/ml): 43%

CSc1c(C#N)c(=O)n2ccccc2c1C(=O)N1CCCC2CCCCC21 (stereo not shown) [S-86]
inhibition at 2.5 µg/mL (IgE; Mus musculus, 96 h): 46% | inhibition at 2.5 µg/mL (IgG; Mus musculus, 96 h): 21%

CSc1c(C#N)c(=O)n2ccccc2c1C(=O)OC(C)c1ccc(C#N)cc1 (stereo not shown) [S-32, 1'-(4-Cyanophenyl)ethyl 3-cyano-2-methylthio-4H-quinolizin-4-one-1-carboxylate]
inhibition at 1 µg/mL (IgE; Mus musculus, 96 h, 1.0 μg/ml): 52% | inhibition at 1 µg/mL (IgG; Mus musculus, 96 h, 1.0 μg/ml): 28%
